{"source": "paper PMC2745333", "about": "(Molecular Microbiology, 2009)", "target": "PspF1−275 (Escherichia coli, UniProt P37344)", "sequence (P37344 1-275)": "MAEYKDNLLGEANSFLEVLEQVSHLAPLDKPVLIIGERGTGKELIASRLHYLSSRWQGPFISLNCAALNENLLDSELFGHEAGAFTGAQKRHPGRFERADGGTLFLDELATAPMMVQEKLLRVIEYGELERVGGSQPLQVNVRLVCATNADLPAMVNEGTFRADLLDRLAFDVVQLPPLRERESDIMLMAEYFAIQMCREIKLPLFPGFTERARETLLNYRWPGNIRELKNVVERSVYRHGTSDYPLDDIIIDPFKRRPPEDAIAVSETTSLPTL", "assay": "analytical gel filtration, ADP-dependent dimer-to-hexamer shift", "format": "binding", "conditions": "0.5 mM ADP, 10 μM protein, pH 8.0, 15 mM MgCl2, room temperature", "data": [{"smiles": "Nc1ncnc2c1ncn2[C@@H]1O[C@H](COP(=O)(O)OP(=O)(O)O)[C@@H](O)[C@H]1O", "note": "[ADP]", "values": [{"measurement": "analytical gel filtration, ADP-dependent dimer-to-hexamer shift", "result": "dimers (Fig. 4A) in the absence of nucleotide and hexamers in the presence of ADP"}]}]}
